Assays:
Microsomal stability = assay type: in vitro ADME; settings: mouse liver microsomes, 2 μM test compound, 37° C.
Experimental: Mouse hepatic microsomes were isolated from pooled (50), perfused livers of Balb/c male mice according to the standard protocol (Hill, J. R. in Current Protocols in Pharmacology 7.8.1-7.8.11, Wiley Interscience, 2003). The batch of microsomes was tested for quality control using Imipramine, Propranolol and Verapamil as reference compounds. Microsomal incubations were carried out in 96-well plates in 5 aliquots of 40 μL each (one for each time point). Liver microsomal incubation medium contained PBS (100 mM, pH 7.4), MgCl2 (3.3 mM), NADPH (3 mM), glucose-6-phosphate (5.3 mM), glucose-6-phosphate dehydrogenase (0.67 units/ml) with 0.42 mg of liver microsomal protein per ml. Control incubations were performed replacing the NADPH-cofactor system with PBS.
Test compound (2 μM, final solvent concentration 1.6%) is incubated with microsomes at 37° C., shaking at 100 rpm. Incubations are performed in duplicates. Five time points over 40 minutes are analyzed. The reactions are stopped by adding 12 volumes of 90% acetonitrile-water to incubation aliquots, followed by protein sedimentation by centrifuging at 5500 rpm for 3 minutes. Supernatants are analyzed using the HPLC system coupled with tandem mass spectrometer. The elimination constant (kel), half-life (t½) and intrinsic clearance (Clint) is determined in plot of In(AUC) versus time, using linear regression analysis.

pirin = molecular target: T1, pirin (Homo sapiens, UniProt O00625); assay: Nano differential scanning fluorimetry (NanoDSF), thermal melting of pirin; settings: 10 μM pirin in PBS, 20 μM test compound
T1 sequence (O00625 1-290): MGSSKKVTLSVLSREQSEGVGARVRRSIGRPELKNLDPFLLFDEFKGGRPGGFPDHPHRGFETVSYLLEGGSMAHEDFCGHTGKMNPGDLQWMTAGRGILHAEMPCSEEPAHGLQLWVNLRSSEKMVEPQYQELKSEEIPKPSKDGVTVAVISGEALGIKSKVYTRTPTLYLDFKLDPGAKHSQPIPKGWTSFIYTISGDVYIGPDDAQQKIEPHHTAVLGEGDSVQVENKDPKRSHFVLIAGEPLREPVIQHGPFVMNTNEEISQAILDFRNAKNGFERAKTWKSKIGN
Excerpt: NanoDSF is an advanced Differential Scanning Fluorimetry method for measuring protein stability using intrinsic tryptophan or tyrosine fluorescence. The fluorescence of the tryptophans and tyrosines in a protein is strongly dependent on their close surroundings. Changes in protein structure typically affect both the intensity and the emission wavelength especially of tryptophan fluorescence. By measuring fluorescence intensity at 330 nm and 350 nm, the change in fluorescence intensity and the shift of the fluorescence maximum upon unfolding can be used to detect thermal melting of the protein. Proteins are stabilized when associated with ligands and show a shift in their melting temperatures. NanoDSF has the advantages of being label free and observing the protein in solution.
A 10 μM solution of pirin in phosphate buffered saline, with or without 20 μM test compound, is subject to thermal denaturation under fluorescence monitoring using a Prometheus NT.48 instrument of NanoTemper Technologies. Unliganded pirin has a complex biphasic melting curve. […] If the test compound is a ligand to pirin, it adopts a single thermal transition some 10° C. above that of apopirin.

[1] = Bioavalability (PO/IV pharmacokinetic study); assay type: in vivo, Male Balb/c mice; settings: mice, PO 30 mg/kg vs IV 10 mg/kg
Experimental: Male Balb/c mice (11-12 weeks old, body weight 23.7 to 30.6 g and average body weight across all groups 26.5 g, SD=1.6 g) are used in this study. The animals are randomly assigned to the treatment groups before the pharmacokinetic study; all animals are fasted for 3 h before dosing. Six time points (IV: 5, 15, 30, 60, 120 and 240 min, and PO: 15, 30, 60, 120, 240, and 360 min) are used in this pharmacokinetic study. Each of the PO and IV time point treatment groups includes 4 animals; there is also control group of 2 animals. Dosing is done according to the treatment schedules outlined in the Table 2. Mice are injected IV with tribrometanol at the dose of 150 mg/kg prior to taking blood. Blood samples are withdrawn from retroorbital sinus and are collected in microcontainers containing K2EDTA. All samples are immediately prepared, flash-frozen and stored at −70° C. until subsequent bioanalysis.
Plasma samples (50 μl) are mixed with 200 μl of IS solution (100 ng/ml in acetonitrile-methanol mixture 1:1, v/v). After mixing by pipetting and centrifuging for 4 min at 6,000 rpm, 2 μl of each supernatant is injected into a LC-MS/MS system.
The concentrations of test compound are determined using a high performance liquid chromatography/tandem mass spectrometry (HPLC-MS/MS) method. […]

[2] = test system: patient derived CLL samples; assay: Growth inhibition of cells derived from patients with CLL; assay type: cell-based; settings: 27 patient derived CLL isolates; for EC50: Homo sapiens, read-out: median EC50
Experimental: HeLa, A549 and HCT116 cells were grown in high-glucose Dulbecco's Modified Eagle's Medium (DMEM, Sigma)+10% FBS+1% penicillin and streptomycin+1% L-glutamine, at 37° C. with 5% CO2 and 95% humidity. Cytotoxic screening of the ProQinase panel of 100 cell-lines was performed by ProQinase (Freiburg, Germany). Patient derived CLL isolates were prepared and screened as described by Dietrich et al. (S. Dietrich et al., J Clin Invest, 2018, 128(1), 427-445). Cell viability was determined after 48 hours using the ATP-based CellTiter Glo assay (Promega). Luminescence was measured with a Tecan Infinite F200 Microplate Reader (Tecan Group AG) and with an integration time of 0.2 seconds per well.
The response of 97 tumour samples derived from patients with CLL was investigated. All samples tumor cells were obtained from whole blood, subjected to Ficoll-Isopaque density centrifugation. CD19+B and CD3+ T cells were isolated by positive magnetic cell separation (Miltenyi Biotec). Sorted cells were checked for purity by fluorescence-activated cell sorting (FACS) with CD19/CD20 for healthy control samples and CD19/CD20/CD5 for CLL samples (BD Biosciences). Following sorting, all samples with a CD19/CD20/CD5 purity <98% were subjected to additional sorting, and the average final purity of all sorted samples was >99%. CLL samples with >[…] were not subject to purification.
Cells are incubated for three days with an eight-point three-fold titration series of the test compound from an initial concentration of 30 μM (2000 cells per well in a volume of 50 μl). Cellular viability is estimated by the addition of 25 μL of ATPlite (Perkin Elmer) with the resulting luminescence measured using an EnVision Xcite plate reader (Perkin Elmer).
In addition, the growth inhibitory response of a selection of 27 patient derived CLL isolates (S. Dietrich et al., J Clin Invest, 2018, 128(1), 427-445) against the compounds of examples 64 and 85 was evaluated using the procedure as described above.

Row | Compound | microsomal stability (Microsomal stability) [min] | increase in the Tm of melting (pirin) | oral bioavalability [1] [%] | growth inhibitory response [2] | EC50 [2] [µM]
1 | Cc1cnc(NC(=O)Cc2coc3cc4c(cc23)CCC4)s1 [Example 64, 2-(6,7-Dihydro-5H-cyclopenta[f]benzofuran-3-yl)-N-(5-methylthiazol-2-yl)acetamide] | 10 | approximately 11 °C | 9.9 | active against all isolates | 6
2 | O=C(Cc1coc2c(Cl)c(Cl)ccc12)Nc1ncc(C(F)(F)F)s1 [Example 85, 2-(6,7-Dichlorobenzofuran-3-yl)-N-[5-(trifluoromethyl)thiazol-2-yl]acetamide] | 113 | approximately 11 °C | 40 | active against all isolates | 1.67
